Assay type in all cases: ADME
The target in series [1] is T1, Cytochrome P450 1A2 (Homo sapiens, UniProt P05177).
T1 sequence (P05177 whole entry): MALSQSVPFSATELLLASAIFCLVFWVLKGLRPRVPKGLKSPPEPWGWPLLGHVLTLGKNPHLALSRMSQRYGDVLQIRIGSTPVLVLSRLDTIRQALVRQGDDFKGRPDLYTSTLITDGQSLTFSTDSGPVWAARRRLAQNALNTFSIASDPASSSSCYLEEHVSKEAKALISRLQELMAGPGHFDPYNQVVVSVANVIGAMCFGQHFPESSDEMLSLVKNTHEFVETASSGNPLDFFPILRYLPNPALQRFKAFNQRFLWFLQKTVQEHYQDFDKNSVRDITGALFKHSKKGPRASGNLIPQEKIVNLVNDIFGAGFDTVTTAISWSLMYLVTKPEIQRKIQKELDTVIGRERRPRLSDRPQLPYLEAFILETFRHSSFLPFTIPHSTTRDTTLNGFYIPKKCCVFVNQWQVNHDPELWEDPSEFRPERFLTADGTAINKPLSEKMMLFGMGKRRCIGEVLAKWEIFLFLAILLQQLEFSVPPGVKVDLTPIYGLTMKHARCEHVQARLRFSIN
The experiment in a line: Drug metabolism assessed as human CYP1A2-mediated (R)-1-(4-(4-fluoro-2-(hydroxymethyl)-1H-indol-5-yloxy)-5-methylpyrrolo[1,2-f][1,2,4]triazin-6-yloxy)propan-2-ol formation at 2 and 20 uM for 20 mins by LC/MS analysis in presence of NADPH. The note with it: recombinant enzyme.

The target of series [2] is T2, Cytochrome P450 2D6 (Homo sapiens, UniProt P10635). The series is described as follows: Drug metabolism assessed as human CYP2D6-mediated (R)-1-(4-(4-fluoro-2-(hydroxymethyl)-1H-indol-5-yloxy)-5-methylpyrrolo[1,2-f][1,2,4]triazin-6-yloxy)propan-2-ol formation at 2 and 20 uM for 20 mins by LC/MS analysis in presence of NADPH. The note with it: recombinant enzyme.
T2 sequence (P10635 whole entry): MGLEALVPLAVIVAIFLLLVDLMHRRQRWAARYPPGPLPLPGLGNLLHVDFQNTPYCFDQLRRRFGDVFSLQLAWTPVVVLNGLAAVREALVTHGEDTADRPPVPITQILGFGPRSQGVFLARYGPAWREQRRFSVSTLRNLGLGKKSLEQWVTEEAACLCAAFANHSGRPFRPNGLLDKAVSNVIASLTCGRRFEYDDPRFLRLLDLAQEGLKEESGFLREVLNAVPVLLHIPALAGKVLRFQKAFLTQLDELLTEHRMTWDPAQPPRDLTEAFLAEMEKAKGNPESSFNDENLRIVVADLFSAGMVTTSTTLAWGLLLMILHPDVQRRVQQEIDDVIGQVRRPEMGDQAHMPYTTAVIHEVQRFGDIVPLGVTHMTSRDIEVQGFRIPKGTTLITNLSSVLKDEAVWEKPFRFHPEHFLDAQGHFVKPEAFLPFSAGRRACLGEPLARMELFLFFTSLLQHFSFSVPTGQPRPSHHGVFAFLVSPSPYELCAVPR
Another series deals with T3, Cytochrome P450 2A6 (Homo sapiens, UniProt P11509).
T3 sequence (P11509 whole entry): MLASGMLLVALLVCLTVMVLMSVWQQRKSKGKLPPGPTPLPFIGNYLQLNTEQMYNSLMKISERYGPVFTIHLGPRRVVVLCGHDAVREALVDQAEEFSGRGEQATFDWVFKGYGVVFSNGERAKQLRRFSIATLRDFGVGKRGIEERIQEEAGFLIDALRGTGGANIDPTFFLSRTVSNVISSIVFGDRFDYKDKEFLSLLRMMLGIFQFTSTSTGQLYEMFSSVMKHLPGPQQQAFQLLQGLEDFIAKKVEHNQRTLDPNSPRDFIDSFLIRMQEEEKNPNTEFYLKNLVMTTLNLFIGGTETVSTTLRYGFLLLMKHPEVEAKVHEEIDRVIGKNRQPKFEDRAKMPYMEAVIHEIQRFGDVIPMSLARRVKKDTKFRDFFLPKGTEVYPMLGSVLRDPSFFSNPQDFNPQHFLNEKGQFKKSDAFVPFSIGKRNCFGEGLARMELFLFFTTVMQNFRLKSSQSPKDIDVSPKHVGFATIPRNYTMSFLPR
The series is described as follows: Drug metabolism assessed as human CYP2A6-mediated (R)-1-(4-(4-fluoro-2-(hydroxymethyl)-1H-indol-5-yloxy)-5-methylpyrrolo[1,2-f][1,2,4]triazin-6-yloxy)propan-2-ol formation at 2 and 20 uM for 20 mins by LC/MS analysis in presence of NADPH. The note with it: recombinant enzyme.

Another series has as its target Cytochrome P450 1A1 (Homo sapiens, UniProt P04798). The experiment in a line: Drug metabolism assessed as human CYP1A1-mediated (R)-1-(4-(4-fluoro-2-(hydroxymethyl)-1H-indol-5-yloxy)-5-methylpyrrolo[1,2-f][1,2,4]triazin-6-yloxy)propan-2-ol formation at 2 and 20 uM for 20 mins by LC/MS analysis in presence of NADPH. The note with it: recombinant enzyme.
In a further series the target is Cytochrome P450 2C9 (Homo sapiens, UniProt P11712). The series is described as follows: Drug metabolism assessed as human CYP2C9-mediated (R)-1-(4-(4-fluoro-2-(hydroxymethyl)-1H-indol-5-yloxy)-5-methylpyrrolo[1,2-f][1,2,4]triazin-6-yloxy)propan-2-ol formation at 2 and 20 uM for 20 mins by LC/MS analysis in presence of NADPH. As to conditions: recombinant enzyme.
Cytochrome P450 2C9, sequence (P11712 whole entry): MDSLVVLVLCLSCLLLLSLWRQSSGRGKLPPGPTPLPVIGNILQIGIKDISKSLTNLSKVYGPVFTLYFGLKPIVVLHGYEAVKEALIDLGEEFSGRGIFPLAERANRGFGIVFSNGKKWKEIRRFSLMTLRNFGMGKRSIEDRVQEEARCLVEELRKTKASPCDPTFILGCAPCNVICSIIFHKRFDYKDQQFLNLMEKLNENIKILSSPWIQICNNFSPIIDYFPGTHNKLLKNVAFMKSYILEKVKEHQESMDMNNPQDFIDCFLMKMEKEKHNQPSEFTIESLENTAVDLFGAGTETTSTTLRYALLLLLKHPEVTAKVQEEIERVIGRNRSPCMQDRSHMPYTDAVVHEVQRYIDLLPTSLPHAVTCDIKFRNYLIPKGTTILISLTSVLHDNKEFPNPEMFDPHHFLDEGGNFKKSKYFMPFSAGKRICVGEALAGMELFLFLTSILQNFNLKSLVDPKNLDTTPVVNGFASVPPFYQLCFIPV

Series [3] is described as follows: Activity of CYP3A4/CYP1A2 in human liver microsomes assessed as enzyme-mediated (R)-1-(4-(4-fluoro-2-(hydroxymethyl)-1H-indol-5-yloxy)-5-methylpyrrolo[1,2-f][1,2,4]triazin-6-yloxy)propan-2-ol formation in presence of NADPH. For orientation: Liver microsomes are vesicles of endoplasmic reticulum, rich in cytochrome P450 enzymes.
The nature of series [4]: Activity of CYP3A4/CYP1A2 in human liver microsomes assessed as intrinsic clearance for enzyme-mediated (R)-1-(4-(4-fluoro-2-(hydroxymethyl)-1H-indol-5-yloxy)-5-methylpyrrolo[1,2-f][1,2,4]triazin-6-yloxy)propan-2-ol formation per mg protein in presence of NADPH.
Series [5] deals with T1, Cytochrome P450 1A2. The series is described as follows: Activity of human CYP1A2 assessed as intrinsic clearance for enzyme-mediated (R)-1-(4-(4-fluoro-2-(hydroxymethyl)-1H-indol-5-yloxy)-5-methylpyrrolo[1,2-f][1,2,4]triazin-6-yloxy)propan-2-ol formation per picomole enzyme in presence of NADPH.
Another series has as its target Sulfotransferase 1A3 (Homo sapiens, UniProt P0DMM9). The series is described as follows: Drug metabolism assessed as human SULT1A3-mediated (R)-1-(4-(4-fluoro-2-methyl-1H-indol-5-yloxy)-5-methylpyrrolo[1,2-f][1,2,4]triazin-6-yloxy)propane-2-sulfonic acid formation at 2 and 20 uM for 30 mins by LC/MS analysis in presence of PAPS. The note with it: 0.5 h.
In the next series the target is Sulfotransferase 2A1 (Homo sapiens, UniProt Q06520). The series is described as follows: Drug metabolism assessed as human SULT2A1-mediated (R)-1-(4-(4-fluoro-2-methyl-1H-indol-5-yloxy)-5-methylpyrrolo[1,2-f][1,2,4]triazin-6-yloxy)propane-2-sulfonic acid formation at 2 and 20 uM for 30 mins by LC/MS analysis in presence of PAPS. As to conditions: 0.5 h.
Sulfotransferase 2A1, sequence (Q06520 whole entry): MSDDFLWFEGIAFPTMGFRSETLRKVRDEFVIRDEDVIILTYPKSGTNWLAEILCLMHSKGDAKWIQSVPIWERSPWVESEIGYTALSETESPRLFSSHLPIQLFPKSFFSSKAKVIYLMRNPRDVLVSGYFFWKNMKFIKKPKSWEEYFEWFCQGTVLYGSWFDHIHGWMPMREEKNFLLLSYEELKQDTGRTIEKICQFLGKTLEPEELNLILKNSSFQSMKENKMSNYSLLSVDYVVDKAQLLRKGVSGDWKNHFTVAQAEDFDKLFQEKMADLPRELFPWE
The next series deals with Sulfotransferase 1B1 (Homo sapiens, UniProt O43704). The series is described as follows: Drug metabolism assessed as human SULT1B1-mediated (R)-1-(4-(4-fluoro-2-methyl-1H-indol-5-yloxy)-5-methylpyrrolo[1,2-f][1,2,4]triazin-6-yloxy)propane-2-sulfonic acid formation at 2 and 20 uM for 30 mins by LC/MS analysis in presence of PAPS. As to conditions: 0.5 h.
Sulfotransferase 1B1, sequence (O43704 whole entry): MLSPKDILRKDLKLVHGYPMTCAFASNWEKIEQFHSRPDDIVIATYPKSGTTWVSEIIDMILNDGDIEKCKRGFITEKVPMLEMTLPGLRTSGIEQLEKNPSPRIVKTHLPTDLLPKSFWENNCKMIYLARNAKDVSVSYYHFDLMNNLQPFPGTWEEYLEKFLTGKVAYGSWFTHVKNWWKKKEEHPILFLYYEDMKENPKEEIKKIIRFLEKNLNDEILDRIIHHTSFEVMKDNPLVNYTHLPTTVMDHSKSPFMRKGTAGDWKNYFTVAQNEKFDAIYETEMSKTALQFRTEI
For series [6], the target named is T2, Cytochrome P450 2D6. The series is described as follows: Drug metabolism in human liver microsomes assessed as monoclonal antibody-mediated inhibition of CYP2D6-mediated(R)-1-(4-(4-fluoro-2-(hydroxymethyl)-1H-indol-5-yloxy)-5-methylpyrrolo[1,2-f][1,2,4]triazin-6-yloxy)propan-2-ol formation at 2 and 20 uM for 30 mins by LC/MS analysis. The note with it: 0.5 h.

Cytochrome P450 1A1, sequence (P04798 whole entry): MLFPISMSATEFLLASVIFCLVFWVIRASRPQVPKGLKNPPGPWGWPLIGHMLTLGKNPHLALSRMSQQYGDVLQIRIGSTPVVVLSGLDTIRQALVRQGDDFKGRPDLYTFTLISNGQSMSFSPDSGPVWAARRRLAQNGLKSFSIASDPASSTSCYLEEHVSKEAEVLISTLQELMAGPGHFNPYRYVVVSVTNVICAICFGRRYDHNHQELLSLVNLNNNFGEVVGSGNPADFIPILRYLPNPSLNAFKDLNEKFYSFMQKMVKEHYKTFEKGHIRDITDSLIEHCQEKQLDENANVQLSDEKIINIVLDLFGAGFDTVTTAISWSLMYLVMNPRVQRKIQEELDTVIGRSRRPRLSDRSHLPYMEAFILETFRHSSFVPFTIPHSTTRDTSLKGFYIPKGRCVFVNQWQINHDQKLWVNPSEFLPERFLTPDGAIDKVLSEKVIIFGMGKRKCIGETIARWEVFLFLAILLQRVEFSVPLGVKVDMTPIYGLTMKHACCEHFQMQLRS
Sulfotransferase 1A3, sequence (P0DMM9 whole entry): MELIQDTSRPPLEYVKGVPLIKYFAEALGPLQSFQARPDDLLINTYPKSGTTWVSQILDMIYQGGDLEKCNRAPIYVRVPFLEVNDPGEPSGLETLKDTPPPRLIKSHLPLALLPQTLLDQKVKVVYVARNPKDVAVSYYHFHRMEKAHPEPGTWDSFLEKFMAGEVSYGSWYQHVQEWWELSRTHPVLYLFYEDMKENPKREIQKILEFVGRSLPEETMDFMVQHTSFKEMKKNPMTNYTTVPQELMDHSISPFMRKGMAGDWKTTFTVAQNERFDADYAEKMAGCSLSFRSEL

Turning to `Cc1cc2c(F)c(Oc3ncnn4cc(OC[C@@H](C)O)c(C)c34)ccc2[nH]1` [BRIVANIB], the Drug metabolism result at Cytochrome P450 1A2 [1], at Cytochrome P450 2D6 [2], on Cytochrome P450 2A6, on Cytochrome P450 1A1, on Cytochrome P450 2C9 and at Sulfotransferase 1A3 was “metabolite_detected” each time. Moreover, the Drug metabolism entry on Sulfotransferase 2A1, on Sulfotransferase 1B1 and on Cytochrome P450 2D6 [6] was “metabolite_detected” throughout. Moreover, the Km (usually the substrate concentration at which the rate is half of its maximum) in series [3] came out at 29.1 µM. Further, the CLint in [4] worked out at 3.1 µL/min/mg. The CL on Cytochrome P450 1A2 [5] was 0.031 µL/min.

(Values after ChEMBL document CHEMBL3526086, “Identification of the oxidative and conjugative enzymes involved in the biotransformation of brivanib” (Drug Metab Dispos, 2012).)
